Literature values, collected in patent US8865899B2 (AstraZeneca AB, priority 2006, dated 2014).

Assays:
VEGF RTK = details: statement in words, background
tumour models = details: once-daily oral administration; Wedge et al, Proc. Am. Assoc. Canc. Res. 2001; 42: abstract 3126

COc1cc2c(Nc3ccc(Br)cc3F)ncnc2cc1OCC1CCN(C)CC1 [ZD6474, 4-(4-bromo-2-fluoroanilino)-6-methoxy-7-(1-methylpiperidin-4-ylmethoxy)quinazoline]
inhibition of VEGF RTK (VEGF RTK): potent inhibitor | anti-tumour activity (tumour models): broad-spectrum anti-tumour activity
